These results are taken from US9546179B2, “Heterocycle amido alkyloxy substituted quinazoline derivative and use thereof” (priority 2011, dated 2017).

The target of this test is T1, receptor tyrosine kinase EGFR (Homo sapiens, UniProt P00533).
T1 construct: purchased Shanghai 3bio Technology Co., Ltd. Lot No. 4018780925
T1 sequence (P00533 25-1210): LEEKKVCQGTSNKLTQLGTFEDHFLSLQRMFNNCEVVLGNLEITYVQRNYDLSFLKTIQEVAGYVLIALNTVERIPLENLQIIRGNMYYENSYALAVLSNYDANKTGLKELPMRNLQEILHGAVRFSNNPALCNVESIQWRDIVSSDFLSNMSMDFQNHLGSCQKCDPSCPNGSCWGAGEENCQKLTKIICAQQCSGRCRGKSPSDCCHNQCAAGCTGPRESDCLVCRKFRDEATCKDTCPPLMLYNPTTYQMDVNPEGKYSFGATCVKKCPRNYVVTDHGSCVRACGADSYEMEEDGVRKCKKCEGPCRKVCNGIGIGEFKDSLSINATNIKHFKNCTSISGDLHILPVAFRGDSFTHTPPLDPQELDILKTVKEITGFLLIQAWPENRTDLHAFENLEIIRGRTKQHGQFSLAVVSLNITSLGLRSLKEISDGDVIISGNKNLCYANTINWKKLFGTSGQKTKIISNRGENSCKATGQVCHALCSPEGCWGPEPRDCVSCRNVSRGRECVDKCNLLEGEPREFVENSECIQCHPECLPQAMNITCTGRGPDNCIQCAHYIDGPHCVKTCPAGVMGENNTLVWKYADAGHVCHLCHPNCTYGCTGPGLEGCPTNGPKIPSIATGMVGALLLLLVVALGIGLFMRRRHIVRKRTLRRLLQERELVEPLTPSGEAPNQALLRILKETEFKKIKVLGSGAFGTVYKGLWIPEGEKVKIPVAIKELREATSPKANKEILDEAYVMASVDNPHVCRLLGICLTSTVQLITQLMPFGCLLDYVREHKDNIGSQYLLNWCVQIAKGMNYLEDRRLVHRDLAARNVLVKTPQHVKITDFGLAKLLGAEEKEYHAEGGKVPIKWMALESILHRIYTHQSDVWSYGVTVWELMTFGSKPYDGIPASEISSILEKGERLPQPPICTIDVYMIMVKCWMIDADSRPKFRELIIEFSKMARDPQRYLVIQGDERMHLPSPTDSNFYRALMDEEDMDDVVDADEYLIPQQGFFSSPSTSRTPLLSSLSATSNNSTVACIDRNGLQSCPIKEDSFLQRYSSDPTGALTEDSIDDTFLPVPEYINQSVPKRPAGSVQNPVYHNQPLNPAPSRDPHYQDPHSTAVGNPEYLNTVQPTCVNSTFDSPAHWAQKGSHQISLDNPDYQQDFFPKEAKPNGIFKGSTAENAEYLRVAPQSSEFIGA
Briefly: Inhibitory effect on receptor tyrosine kinase EGFR (ELISA, Poly(Glu, Tyr)4:1, PY99 antibody). To be noted: ATP 4 μM, 1 hour at 37° C. The format is biochemical. How it is done:
Poly(Glu, Tyr)4:1 was diluted into 100 μg/ml by PBS without potassium. Enzyme label plate was coated with 37 μl/well at 37° C. overnight,
The liquid in the wells was removed. The plate was rinsed by T-PBS for 5 minutes, and dried at 37° C. after repeated 3 times.
The testing sample was diluted to the concentration concerned by reaction buffer solution, and added into the wells of the coated enzyme label plate. The concentration diluted should realize 1.0000 μg/ml, 0.1250 μg/ml, 0.0156 μg/ml, 0.00195 μg/ml and 0.00024 μg/ml in the 100 μl reaction.
Adding in ATP solution (4 μM of final concentration) diluted by reaction buffer solution,
Finally, the tyrosine kinase diluted by reaction buffer solution was added, and forming the reaction with 100 μl total volume.
Meanwhile, negative control wells and enzyme-free control wells were prepared. The reaction was kept in the dark wet box for 1 hour at 37° C. The plate was rinsed by T-PBS for three times after the reaction ended, and blocked by 1% BSA […] for 30 min, and then, PY99 antibody (1:1000 diluted by 0.05% PBST with 1% BSA) was added in 100 μl/well. After incubated at 37° C. for 30 minutes, the plate was rinsed by T-PBS for three times, and the goat anti-mouse IgG marked with HRP (1 mg/ml 1:1000 diluted by 0.05% PBST with 1% BSA) was then added in 100 μl/well. After incubated at 37° C. for 30 minutes, the plate was rinsed by T-PBS for three times.
Colorimetric solution OPD was added in 100 μl/well for 20 minutes' reaction in the dark side at the room temperature. Colorimetric substrate solution OPD was the solution of 0.1 mol/L citric acid-disodium hydrogen phosphate buffer (pH 5.0) with 20 mmol/L OPD and 12 mmol/L H2O2 (freshly prepared when using).
50 μl of 2M H2SO4 (2 mol/L sulfuric acid containing 0.1 mol/L sodium sulfate) was added in to terminate the reaction, and the A492 value was read with adjustable wavelength micro late enzyme-labeling instrument VERSAmax.
The inhibition rate of samples is calculated by the following formula: […]
On the technique in general: An ELISA detects its analyte on a solid surface through an enzyme-linked reagent.
As to `C#Cc1cccc(Nc2ncnc3cc(OC)c(OCCCN4CC[C@H]5OCC[C@H]54)cc23)c1` (relative stereo) [Example 50, 4-(3′-ethynylphenylamino)-6-[3-(cis-hexahydrofuro[3,2-b]pyrrole-4-yl)-propoxy]-7-methoxyquinazoline], the IC50 is 0.1 to 10 nM. Consider `COc1cc2ncnc(Nc3ccc(F)c(Cl)c3)c2cc1OCCN1CC[C@H]2OCC[C@H]21` (relative stereo) [Example 54], for which the IC50 was greater than 1000 nM. On to `COc1cc2ncnc(Nc3ccc(F)c(Cl)c3)c2cc1OCCCN1CC[C@H]2OCC[C@H]21` (relative stereo) [Example 78, 4-(3′-chloro-4′-fluorophenylamino)-6-[3-(cis-hexahydrofuro[3,2-b]pyrrole-4-yl)-propoxy]-7-methoxyquinazoline], for which the IC50 fell in the range of 10 to 100 nM.

Consider `COc1cc2ncnc(Nc3cc(Cl)ccc3F)c2cc1OCCCN1CC2(COC2)C1` [Example 14, 4-(5′-chloro-2′-fluorophenylamino)-6-[3-(2-oxa-6-azaspiro[3.3]heptane-6-yl)-propoxy]-7-methoxyquinazoline], for which the IC50 was in the range of 0.1 to 10 nM. As for `COc1cc2ncnc(Nc3cc(Cl)ccc3F)c2cc1OCCCN1CCC2(CCOC2)C1` (centres unmarked) [Example 15, 4-(5′-chloro-2′-fluorophenylamino)-6-[3-(2-oxa-7-azaspiro[4.4]nonane-7-yl)-propoxy]-7-methoxyquinazoline], the figure is 10 to 100 nM; as for `COc1cc2ncnc(Nc3cc(Cl)ccc3F)c2cc1OCCCN1C2CCC1COC2` [Example 16, 4-(5′-chloro-2′-fluorophenylamino)-6-[3-(3-oxa-8-azabicyclo[3.2.1]octane-8-yl)-propoxy]-7-methoxyquinazolin], 10 to 100 nM.

The compound `COc1cc2ncnc(Nc3cc(Cl)ccc3F)c2cc1OCCCN1CC2(CCOCC2)C1` [Example 18, 4-(5′-chloro-2′-fluorophenylamino)-6-[3-(7-oxa-2-azaspiro[3.5]-nonane-2-yl)-propoxy]-7-methoxyquinazoline] came in with an IC50 of 10 to 100 nM. As for `COc1cc2ncnc(Nc3cc(Cl)ccc3F)c2cc1OCCCN1CCC2(CCN(C(C)=O)C2)C1` (centres unmarked) [Example 19, 4-(5′-chloro-2′-fluorophenylamino)-6-[3-(7-acetyl-2,7-diazaspiro[4.4]-nonane-2-yl)-propoxy]-7-methoxyquinazoline], the figure is 10 to 100 nM; as for `COc1cc2ncnc(Nc3cc(Cl)ccc3F)c2cc1OCCCN1CCC2(CC1)CNC(=O)C2` [Example 21, 4-(5′-chloro-2′-fluorophenylamino)-6-[3-(2,8-diazaspiro[4.5]decyl-3-ketone-8-yl)-propoxy]-7-methoxyquinazoline], 10 to 100 nM. As for `COc1cc2ncnc(Nc3cc(Cl)ccc3F)c2cc1OCCCN1CCC2(CCNC2=O)C1` (centres unmarked) [Example 22, 4-(5′-chloro-2′-fluorophenylamino)-6-[3-(2,7-diazaspiro[4.4]nonane-1-ketone-7-yl)-propoxy]-7-methoxyquinazoline], the figure is 10 to 100 nM; as for `COc1cc2ncnc(Nc3cc(Cl)ccc3F)c2cc1OCCCN1CCC2(CCN(C)C2=O)C1` (centres unmarked) [Example 23, 4-(5′-chloro-2′-fluorophenylamino)-6-[3-(2-methyl-2,7-diazaspiro[4.4]nonane-1-ketone-7-yl)-propoxy]-7-methoxyquinazoline], 10 to 100 nM. `COc1cc2ncnc(Nc3cc(Cl)ccc3F)c2cc1OCCCN1CCC2(CC1)CC(=O)N(C)C2` [Example 24, 4-(5′-chloro-2′-fluorophenylamino)-6-[3-(2-methyl-2,8-diazaspiro[4.5]decane-3-ketone-8-yl)-propoxy]-7-methoxyquinazoline] showed an IC50 of 10 to 100 nM. As for `COc1cc2ncnc(Nc3cc(Cl)ccc3F)c2cc1OCCCN1CCC2(CCC(=O)N2)CC1` [Example 25, 4-(5′-chloro-2′-fluorophenylamino)-6-[3-(1,8-diazaspiro[4.5]decane-2-ketone-8-yl)-propoxy]-7-methoxyquinazoline], the figure is 10 to 100 nM; as for `COc1cc2ncnc(Nc3cc(Cl)ccc3F)c2cc1OCCCN1CCC2(CC1)CCN(C)C2=O` [Example 26, 4-(5′-chloro-2′-fluorophenylamino)-6-[3-(2-methyl-2,8-diazaspiro[4.5]decane-1-ketone-8-yl)-propoxy]-7-methoxyquinazoline], 10 to 100 nM.

`COc1cc2ncnc(Nc3cc(Cl)ccc3F)c2cc1OCCCN1CC2(CNC(=O)C2)C1` [Example 27] registered an IC50 of 10 to 100 nM. `COc1cc2ncnc(Nc3cccc(Cl)c3F)c2cc1OCCCN1CCC2(COC2)C1` [Example 28, 4-(3′-chloro-2′-fluorophenylamino)-6-[3-(2-oxa-6-azaspiro[3.4]octane-6-yl)-propoxy]-7-methoxyquinazoline] displayed an IC50 of 10 to 100 nM. As for `COc1cc2ncnc(Nc3cccc(Cl)c3F)c2cc1OCCCN1CCC2(CCNC2=O)C1` (centres unmarked) [Example 29, 4-(3′-chloro-2′-fluorophenylamino)-6-[3-(2,7-diazaspiro[4.4]nonane-1-ketone-7-yl)-propoxy]-7-methoxyquinazoline], the figure is 10 to 100 nM; as for `COc1cc2ncnc(Nc3cccc(Cl)c3F)c2cc1OCCCN1CCC2(CCN(C)C2=O)C1` (centres unmarked) [Example 30, 4-(3′-chloro-2′-fluorophenylamino)-6-[3-(2-methyl-2,7-diazaspiro[4.4]nonane-1-ketone-7-yl)-propoxy]-7-methoxyquinazoline], 10 to 100 nM; as for `COc1cc2ncnc(Nc3cccc(Cl)c3F)c2cc1OCCCN1CCC2(CC1)CC(=O)N(C)C2` [Example 31, 4-(3′-chloro-2′-fluorophenylamino)-6-[3-(2-methyl-2,8-diazaspiro[4.5]decane-3-ketone-8-yl)-propoxy]-7-methoxyquinazoline], 10 to 100 nM. Regarding `COc1cc2ncnc(Nc3cccc(Cl)c3F)c2cc1OCCCN1CCC2(CCC(=O)N2)CC1` [Example 32, 4-(3′-chloro-2′-fluorophenylamino)-6-[3-(1,8-diazaspiro[4.5]decane-2-ketone-8-yl)-propoxy]-7-methoxyquinazoline], the IC50 was 10 to 100 nM. As for `COc1cc2ncnc(Nc3cccc(Cl)c3F)c2cc1OCCCN1CC2(CNC(=O)C2)C1` [Example 33], the IC50 is 10 to 100 nM. As for `COc1cc2ncnc(Nc3cccc(Cl)c3F)c2cc1OCCCN1CCC2(CC1)CNC(=O)O2` [Example 34, 4-(3′-chloro-2′-fluorophenylamino)-6-[3-(1-oxa-3,8-diazaspiro[4.5]decane-2-ketone-8-yl)-propoxy]-7-methoxyquinazoline], the figure is 0.1 to 10 nM. `COc1cc2ncnc(Nc3cccc(Cl)c3F)c2cc1OCCCN1CCC2(C1)CN(C)C(=O)O2` (centres unmarked) [Example 35, 4-(3′-chloro-2′-fluorophenylamino)-6-[3-(3-methyl-1-oxa-3,7-diazaspiro[4.4]nonane-2-ketone-7-yl)-propoxy]-7-methoxycquinazoline] came in with an IC50 of 0.1 to 10 nM. Regarding `COc1cc2ncnc(Nc3cccc(Cl)c3F)c2cc1OCCCN1CC2(CNC(=O)O2)C1` [Example 36, 4-(3′-chloro-2′-fluorophenylamino)-6-[3-(5-oxa-2,7-diazaspiro[3.4]octane-6-ketone-2-yl)-propoxy]-7-methoxyquinazoline], the IC50 lay in the range of 0.1 to 10 nM. As for `COc1cc2ncnc(Nc3cccc(Cl)c3F)c2cc1OCCCN1CC2(C1)CN(C)C(=O)O2` [Example 37, 4-(3′-chloro-2′-fluorophenylamino)-6-[3-(7-methyl-5-oxa-2,7-diazaspiro[3.4]octane-6-ketone-2-yl)-propoxy]-7-methoxyquinazoline], the figure is 0.1 to 10 nM. As for `C#Cc1cccc(Nc2ncnc3cc(OC)c(OCCCN4CC5(COC5)C4)cc23)c1` [Example 38, 4-(3′-ethynylphenylamino)-6-[3-(2-oxa-6-azaspiro[3.3]heptane-6-yl)-propoxy]-7-methoxyquinazoline], the figure is 10 to 100 nM; as for `C#Cc1cccc(Nc2ncnc3cc(OC)c(OCCCN4CC5(CCOCC5)C4)cc23)c1` [Example 39, 4-(3′-ethynylphenylamino)-6-[3-(7-oxa-2-azaspiro[3.5]nonane-2-yl)-propoxy]-7-methoxyquinazoline], 10 to 100 nM. Turning to `C#Cc1cccc(Nc2ncnc3cc(OC)c(OCCCN4CCC5(CCOC5)C4)cc23)c1` (centres unmarked) [Example 40, 4-(3′-ethynylphenylamino)-6-[3-(2-oxa-7-azaspiro[4.4]-nonane-7-yl)-propoxy]-7-methoxyquinazoline], the IC50 lay in the range of 10 to 100 nM. Regarding `C#Cc1cccc(Nc2ncnc3cc(OC)c(OCCCN4CCC5(CCOCC5)C4)cc23)c1` [Example 41, 4-(3′-ethynylphenylamino)-6-[3-(8-oxa-2-azaspiro[4.5]decane-2-yl)-propoxy]-7-methoxyquinazoline], the IC50 was 100 to 1000 nM.

As usually defined, the IC50 is the concentration at which inhibition is half-maximal. Low values mean greater potency, high ones weaker potency.
